Legend:
Test in all cases: R-SAT broad profiling
Type in all cases: cell-based
5HT1D = 5HT1D (Homo sapiens, UniProt P28221); design: expressed in transfected cells; host or cells: NIH3T3; conditions: read-out: pEC50 or pIC50 (converted)
Experimental: (§1) The functional receptor assay, Receptor Selection and Amplification Technology (R-SAT), was used (with minor modifications from that previously described U.S. Pat. No. 5,707,798) to screen compounds for efficacy at the 5-HT2A receptor. Briefly, NIH3T3 cells were grown in 96 well tissue culture plates to 70-80% confluence. Cells were transfected for 12-16 hours with plasmid DNAs using superfect (Qiagen Inc.) as per manufacture's protocols. R-SAT's were generally performed with 50 ng/well of receptor and 20 ng/well of Beta-galactosidase plasmid DNA. All receptor and G-protein constructs used were in the pSI mammalian expression vector (Promega Inc) as described in U.S. Pat. No. 5,707,798. The 5HT2A receptor gene was amplified by nested PCR from brain cDNA using the oligodeoxynucleotides based on the published sequence (see Saltzman et. al. Biochem. Biophys. Res. Comm. 181:1469-78 (1991)). Large-scale transfections, cells were transfected for 12-16 hours, then trypsinized and frozen in DMSO. Frozen cells were later thawed, plated at 10,000-40,000 cells per well of a 96 well plate that contained drug. With both methods, cells were then grown in a humidified atmosphere with 5% ambient CO2 for five days. Media was then removed from the plates and marker gene activity was measured by the addition of the beta-galactosidase substrate ONPG (in PBS with 5% NP-40). The resulting colorimetric reaction was measured in a spectrophotometric plate reader (Titertek Inc.)at […]. All data were analyzed using the computer program XLFit (IDBSm). Efficacy is the percent maximal repression compared to repression by a control compound (ritanserin in the case of 5HT2A). pIC50 is the negative of the log(IC50), where IC50 is the calculated concentration in Molar that produces 50% maximal repression.
(§2) The R-SAT assay (described above in example 289) was used to investigate the selectivity of 4-(4-Fluoro-benzyl)-3-(4-isobutoxy-benzyl)-8-methyl-1-oxa-3,8-diaza-spiro[4.5]decan-2-one.

5HT1F = target: T1, 5HT1F (Homo sapiens, UniProt P30939); design: expressed in transfected cells; host or cells: NIH3T3; conditions: read-out: pEC50 or pIC50 (converted)
T1 sequence (P30939 1-366): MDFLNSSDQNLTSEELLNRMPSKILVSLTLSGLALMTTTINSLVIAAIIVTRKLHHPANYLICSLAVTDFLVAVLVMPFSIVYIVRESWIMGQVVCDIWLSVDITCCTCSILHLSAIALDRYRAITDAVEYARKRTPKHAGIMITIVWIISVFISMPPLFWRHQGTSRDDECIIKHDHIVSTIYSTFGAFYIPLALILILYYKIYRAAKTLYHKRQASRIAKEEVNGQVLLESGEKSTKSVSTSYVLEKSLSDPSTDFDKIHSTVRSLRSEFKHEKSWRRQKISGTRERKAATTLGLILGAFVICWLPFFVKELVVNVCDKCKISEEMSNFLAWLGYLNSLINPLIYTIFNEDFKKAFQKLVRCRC
Experimental: as §1, §2

5HT2C = target: T2, 5HT2C (Homo sapiens, UniProt P28335); design: expressed in transfected cells; host or cells: NIH3T3
T2 sequence (P28335 33-458): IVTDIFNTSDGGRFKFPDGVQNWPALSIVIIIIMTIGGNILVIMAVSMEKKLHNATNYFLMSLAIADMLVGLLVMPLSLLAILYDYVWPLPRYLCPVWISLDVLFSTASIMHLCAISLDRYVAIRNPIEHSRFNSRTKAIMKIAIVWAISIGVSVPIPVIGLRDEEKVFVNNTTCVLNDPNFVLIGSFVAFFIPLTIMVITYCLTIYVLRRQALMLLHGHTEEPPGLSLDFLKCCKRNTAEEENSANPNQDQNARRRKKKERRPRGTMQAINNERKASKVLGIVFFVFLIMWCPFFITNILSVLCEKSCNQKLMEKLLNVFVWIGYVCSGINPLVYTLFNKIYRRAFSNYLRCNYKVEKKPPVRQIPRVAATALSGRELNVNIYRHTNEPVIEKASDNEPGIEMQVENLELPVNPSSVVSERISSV
Experimental: as §1, §2

5HT1B = 5HT1B (Homo sapiens, UniProt P28222); design: expressed in transfected cells; host or cells: NIH3T3; conditions: read-out: pEC50 or pIC50 (converted)
Sequence of 5HT1B (P28222 whole entry, species assumed): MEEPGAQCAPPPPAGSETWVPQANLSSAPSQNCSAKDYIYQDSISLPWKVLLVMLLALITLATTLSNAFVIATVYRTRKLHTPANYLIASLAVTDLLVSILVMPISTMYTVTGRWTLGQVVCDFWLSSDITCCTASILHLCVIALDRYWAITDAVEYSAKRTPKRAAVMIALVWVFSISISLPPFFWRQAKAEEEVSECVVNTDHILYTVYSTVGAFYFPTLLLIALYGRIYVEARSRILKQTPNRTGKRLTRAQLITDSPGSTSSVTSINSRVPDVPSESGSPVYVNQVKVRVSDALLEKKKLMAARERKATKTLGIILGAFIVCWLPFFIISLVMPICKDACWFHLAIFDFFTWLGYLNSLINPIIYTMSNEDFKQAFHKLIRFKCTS
Experimental: as §1, §2

5HT1E = 5HT1E (Homo sapiens, UniProt P28566); design: expressed in transfected cells; host or cells: NIH3T3; conditions: read-out: pEC50 or pIC50 (converted)
Sequence of 5HT1E (P28566 whole entry): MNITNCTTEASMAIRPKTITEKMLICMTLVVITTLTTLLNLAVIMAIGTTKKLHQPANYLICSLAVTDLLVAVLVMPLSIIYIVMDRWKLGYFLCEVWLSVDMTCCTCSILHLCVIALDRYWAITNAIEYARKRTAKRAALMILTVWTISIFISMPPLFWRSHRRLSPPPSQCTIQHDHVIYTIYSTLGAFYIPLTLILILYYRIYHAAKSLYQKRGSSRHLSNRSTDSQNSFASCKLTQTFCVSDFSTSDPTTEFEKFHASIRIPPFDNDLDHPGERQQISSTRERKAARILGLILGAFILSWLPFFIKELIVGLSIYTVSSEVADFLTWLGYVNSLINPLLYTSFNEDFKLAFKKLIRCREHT
Experimental: as §1, §2

D2 = D2 (Homo sapiens, UniProt P14416); design: expressed in transfected cells; host or cells: NIH3T3; conditions: read-out: pEC50 or pIC50 (converted)
Sequence of D2 (P14416 whole entry): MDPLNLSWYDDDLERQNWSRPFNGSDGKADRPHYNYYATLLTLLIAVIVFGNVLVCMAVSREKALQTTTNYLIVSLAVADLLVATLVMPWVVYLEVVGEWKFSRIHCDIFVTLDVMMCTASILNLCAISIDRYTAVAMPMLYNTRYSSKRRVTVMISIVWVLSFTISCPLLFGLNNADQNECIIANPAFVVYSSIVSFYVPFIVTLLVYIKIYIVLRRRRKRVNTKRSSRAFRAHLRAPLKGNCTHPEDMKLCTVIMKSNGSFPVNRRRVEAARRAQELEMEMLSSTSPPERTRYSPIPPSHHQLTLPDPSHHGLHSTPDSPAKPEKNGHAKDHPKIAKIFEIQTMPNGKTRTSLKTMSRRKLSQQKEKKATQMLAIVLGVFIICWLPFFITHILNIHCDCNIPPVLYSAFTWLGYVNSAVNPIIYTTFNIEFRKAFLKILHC
Experimental: as §1, §2

H1 = H1 (Homo sapiens, UniProt P35367); design: expressed in transfected cells; host or cells: NIH3T3; conditions: agonist; read-out: pEC50 or pIC50 (converted)
Sequence of H1 (P35367 whole entry): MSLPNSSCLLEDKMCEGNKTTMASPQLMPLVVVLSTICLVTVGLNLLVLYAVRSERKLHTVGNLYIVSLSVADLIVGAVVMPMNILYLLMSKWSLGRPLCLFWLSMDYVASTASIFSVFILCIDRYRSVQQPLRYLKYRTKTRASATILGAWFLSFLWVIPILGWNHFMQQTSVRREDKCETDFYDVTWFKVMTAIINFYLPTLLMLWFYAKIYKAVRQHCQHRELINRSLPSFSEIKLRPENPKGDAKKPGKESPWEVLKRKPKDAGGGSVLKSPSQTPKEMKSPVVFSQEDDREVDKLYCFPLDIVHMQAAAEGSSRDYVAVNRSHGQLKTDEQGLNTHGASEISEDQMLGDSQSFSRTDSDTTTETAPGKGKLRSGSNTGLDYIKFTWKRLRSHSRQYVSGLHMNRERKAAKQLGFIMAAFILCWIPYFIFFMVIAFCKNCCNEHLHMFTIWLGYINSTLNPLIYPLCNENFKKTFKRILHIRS
Experimental: as §1, §2

m2 = target: T3, m2 (Homo sapiens, UniProt P08172); conditions: agonist; read-out: pEC50 or pIC50 (converted)
T3 construct: expressed in transfected cells; host or cells: NIH3T3
T3 sequence (P08172 1-466): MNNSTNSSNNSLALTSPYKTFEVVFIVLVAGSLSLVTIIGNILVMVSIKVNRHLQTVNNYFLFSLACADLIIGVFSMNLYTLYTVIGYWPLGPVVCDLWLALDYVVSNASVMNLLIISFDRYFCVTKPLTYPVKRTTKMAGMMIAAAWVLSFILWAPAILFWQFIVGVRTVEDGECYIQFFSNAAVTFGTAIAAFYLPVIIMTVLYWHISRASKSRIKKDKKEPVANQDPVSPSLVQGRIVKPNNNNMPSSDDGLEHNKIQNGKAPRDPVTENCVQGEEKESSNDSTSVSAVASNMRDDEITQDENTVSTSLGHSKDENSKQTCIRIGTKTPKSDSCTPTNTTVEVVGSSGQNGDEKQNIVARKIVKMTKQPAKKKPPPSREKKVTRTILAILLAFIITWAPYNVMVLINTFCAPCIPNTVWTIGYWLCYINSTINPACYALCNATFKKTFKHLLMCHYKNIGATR
Experimental: as §1, §2

Sequence of 5HT1D (P28221 whole entry, species assumed): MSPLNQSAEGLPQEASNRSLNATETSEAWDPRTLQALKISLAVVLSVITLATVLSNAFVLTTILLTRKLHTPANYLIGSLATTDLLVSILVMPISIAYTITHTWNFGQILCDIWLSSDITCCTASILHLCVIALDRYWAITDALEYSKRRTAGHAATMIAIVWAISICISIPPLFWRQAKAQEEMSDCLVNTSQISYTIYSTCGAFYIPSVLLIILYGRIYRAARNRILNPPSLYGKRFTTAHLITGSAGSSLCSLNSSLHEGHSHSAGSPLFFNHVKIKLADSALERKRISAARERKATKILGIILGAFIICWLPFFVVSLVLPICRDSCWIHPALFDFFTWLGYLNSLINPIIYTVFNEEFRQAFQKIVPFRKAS

CC(C)COc1ccc(CN2C(=O)OC3(CCN(C)CC3)C2Cc2ccc(F)cc2)cc1.Cl (racemic) [Example 69NLS75, 4-(4-Fluorobenzyl)-3-(4-isobutoxybenzyl)-8-methyl-1-oxa-3,8-diazaspiro[4.5]decan-2-one, hydrochloride]
77%: efficacy in brackets (5HT2C; inverse)
> 0.562 µM: IC50 (5HT1D; antagonist)
> 0.631 µM: IC50 (5HT1E; antagonist)
> 3.16 µM: EC50 (5HT1D; agonist) | EC50 (5HT1F; agonist) | IC50 (5HT1F; antagonist) | EC50 (5HT2C; agonist, read-out: pEC50 or pIC50 (converted)) | EC50 (5HT1B; agonist) | IC50 (5HT1B; antagonist) | EC50 (5HT1E; agonist) | EC50 (D2; agonist) | IC50 (D2; antagonist) | EC50 (H1) | EC50 (m2)
